In patent publication US8471035B1, “Two-photon absorbing arylamine-endcapped and dialkylfluorene-bridged benzobisthiazole compounds with high oleophilicity” (The United States of America as represented by the …, priority 2011, dated 2013):

Key:
[1] = Solubility in hexane at room temperature (AF-388 series); type: physicochemical; conditions: for solubility in hexane, % wt/vol. / solubility in hexane, % wt/wt: 24° C.; for amount that remained completely dissolved in hexane for months: ambient conditions
[2] = Solubility in toluene at room temperature; type: physicochemical
From the text: In addition, these chromophores are found to be even more soluble in aromatic hydrocarbon solvents as indicated by the higher solubilities of AF388-118 (≧29 wt %) and AF388-312 (≧67 wt %) in toluene.

Row | SMILES | solubility in hexane, % wt/vol. [1] [% wt/vol.] | solubility in hexane, % wt/wt [1] [% wt/wt] | concentration of toluene solution that remained homogenous [2] [M] | solubility in toluene [2] [wt %] | concentration of toluene solution that solidified at room temperature after 72 hours ([2]; 72 hours) [M] | amount that remained completely dissolved in hexane for months [1] [wt %]
1 | CC(C)CCCC(C)CCC1(CCC(C)CCCC(C)C)c2cc(-c3nc4cc5sc(-c6ccc7c(c6)C(CCC(C)CCCC(C)C)(CCC(C)CCCC(C)C)c6cc(N(c8ccccc8)c8ccccc8)ccc6-7)nc5cc4s3)ccc2-c2ccc(N(c3ccccc3)c3ccccc3)cc21 (stereo not shown) [AF-388-118] | 0.41 | 0.61 | 0.24 | ≥ 29 | 0.34 | 
2 | CC(C)CCCC(C)CCCC(C)CCCC(C)CCC1(CCC(C)CCCC(C)CCCC(C)CCCC(C)C)c2cc(-c3nc4cc5sc(-c6ccc7c(c6)C(CCC(C)CCCC(C)CCCC(C)CCCC(C)C)(CCC(C)CCCC(C)CCCC(C)CCCC(C)C)c6cc(N(c8ccccc8)c8ccccc8)ccc6-7)nc5cc4s3)ccc2-c2ccc(N(c3ccccc3)c3ccccc3)cc21 (stereo not shown) [AF-388-416, 2,6-Bis[7-(diphenylimino)-9,9-bis(3,7,11,15-tetramethylhexadecyl)fluoren-2-yl]-benzobisthiazole] | 36.3 | 51.3 |  |  |  | ≥ 51
3 | CC(C)CCCC(C)CCCC(C)CCC1(CCC(C)CCCC(C)CCCC(C)C)c2cc(-c3nc4cc5sc(-c6ccc7c(c6)C(CCC(C)CCCC(C)CCCC(C)C)(CCC(C)CCCC(C)CCCC(C)C)c6cc(N(c8ccccc8)c8ccccc8)ccc6-7)nc5cc4s3)ccc2-c2ccc(N(c3ccccc3)c3ccccc3)cc21 (stereo not shown) [AF-388-312, 2,6-Bis[7-(diphenylimino)-9,9-bis(3,7,1′-trimethyldodecylfluoren-2-yl)]-benzobisthiazole] | 20.2 | 30.4 | 0.34 | ≥ 67 |  | ≥ 30
